Literature values in patent US5135753A, “Method and therapeutic system for smoking cessation” (Pharmetrix Corporation, priority 1991, dated 1992).

Columns and labels:
[1] = test system: skin; details: average penetration rate through the skin; very approximate figures
[2] = test system: smoking withdrawal symptoms; details: low consistent blood levels of nicotine; craving may not be among the relieved symptoms
[3] = test system: average adult
[4] = test system: human cadaver skin
[5] = test system: nicotinic cholinergic receptors in the CNS and at autonomic ganglia; details: in 10 minutes
[6] = Russell

In the case of Clc1cccc(Cl)c1N=C1NCCN1 [clonidine], the skin flux [1] is listed as 0.5 μg/cm^2.h.
For C[C@]12CC[C@@H]3c4ccc(O)cc4CC[C@H]3[C@@H]1CC[C@@H]2O [estradiol], the skin flux [1] is listed as 0.01-0.03 μg/cm^2.h.
In the case of CN1CCCC1c1cccnc1 (stereo not shown) [nicotine], the “symptoms of nicotine withdrawal” value [2] is given as “relieve some of the symptoms of nicotine withdrawal”, the skin flux [1] is given as 100-300 μg/cm^2.h and the lethal unit dose [3] is given as “about 60 mg”. For the same compound, the “permeability at later times” value ([4]; at later times, "and more") was no less than 0.4 mg/cm^2.h, the “permeability during the first day of patch use” value ([4]; first day of patch use) was roughly 0.1 mg/cm^2.h and the “rise in nicotine blood level required to obtain postsynaptic effects” value [5] was “at least 10 ng/mL”. The “optimal steady-state blood level for nicotine replacement” value [6] was 10 to 15 ng/mL.
In the case of O=[N+]([O-])OCC(CO[N+](=O)[O-])O[N+](=O)[O-] [nitroglycerin], the skin flux [1] is given as 10-25 μg/cm^2.h.
